This note sets out measurements from patent US12655116B2, “Substituted isophthalic acid diamides” (Bayer Aktiengesellschaft, priority 2020, dated 2026).

The structures appear in SMILES notation.

Experiment [1] concerns AMARE. The experiment is described as follows: Post-emergence herbicidal action against AMARE. Type of experiment: in vivo, Amaranthus retroflexus. The settings on record: 20 g/ha, visual assessment about 3 weeks after treatment, 100% = plants have died, 0% = like control plants. Put shortly: (§1)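 Herbicidal action is a visual percentage rating (0% = as untreated control, 100% = plants dead) made roughly 3 weeks after treatment. Plants were grown in sandy loam in the greenhouse and treated at the one-leaf stage, 2 to 3 weeks post-sowing. Treatment was a foliar spray of wettable-powder or emulsion-concentrate formulations at 600 to 800 l/ha water plus 0.2% wetting agent.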

Experiment [2] deals with DIGSA. The experiment is described as follows: Pre-emergence herbicidal action against DIGSA. Type of experiment: in vivo, Digitaria sanguinalis. Put shortly:
(§2)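 Sandy loam pots, seeds covered with soil, then surface-treated with WP or EC formulations at 600–800 l/ha water plus 0.2% wetting agent. Greenhouse, 3 weeks. Percent damage vs untreated controls.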

The subject of experiment [3] is MATIN. The experiment is described as follows: Pre-emergence herbicidal action against MATIN. Type of experiment: in vivo, Matricaria inodora. Put shortly: as §2
Experiment [4] deals with AMARE. The experiment is described as follows: Pre-emergence herbicidal action against AMARE. Type of experiment: in vivo, Amaranthus retroflexus. Put shortly:
as §2

Experiment [5] concerns VIOTR. The experiment is described as follows: Pre-emergence herbicidal action against VIOTR. Type of experiment: in vivo, Viola tricolor. Put shortly: as §2
The subject of experiment [6] is SETVI. The experiment is described as follows: Pre-emergence herbicidal action against SETVI. Type of experiment: in vivo, Setaria viridis. Put shortly: as §2
For experiment [7], the system named is ECHCG. The experiment is described as follows: Pre-emergence herbicidal action against ECHCG. Type of experiment: in vivo, Echinochloa crus-galli. Particulars: 80 g/ha. Put shortly:
as §2

For experiment [8], the system named is ALOMY. The experiment is described as follows: Pre-emergence herbicidal action against ALOMY. Type of experiment: in vivo, Alopecurus myosuroides. Particulars: 80 g/ha, pre-emergence, scored visually after 3 weeks vs untreated controls (100% = plants have died, 0% = like control plants). Put shortly:
as §2

For experiment [9], the system named is PHBPU. The experiment is described as follows: Pre-emergence herbicidal action against PHBPU. Type of experiment: in vivo, Pharbitis purpurea. Particulars: dosage 80 g/ha. From the text:
Seeds of monocotyledonous and dicotyledonous weed plants and crop plants are laid out in sandy loam soil in wood-fiber pots and covered with soil. The compounds of the invention, formulated in the form of wettable powders (WP) or as emulsion concentrates (EC), are then applied to the surface of the covering soil in the form of an aqueous suspension or emulsion at a water application rate equivalent to 600 to 800 l/ha, with addition of 0.2% wetting agent. After the treatment, the pots are placed in a greenhouse and kept under good growth conditions for the trial plants. The damage to the test plants is scored visually after a test period of 3 weeks by comparison with untreated controls (herbicidal activity in percent (%): 100% activity=the plants have died, 0% activity=like control plants). […] The tables below illustrate, in an illustrative manner, the post-emergence herbicidal action of the compounds of the invention, the herbicidal activity being stated in percent.

Experiment [10] deals with VERPE. The experiment is described as follows: Pre-emergence herbicidal action against VERPE. Type of experiment: in vivo, Veronica persica. Put shortly: as §2
The test system of experiment [11] is ABUTH. The experiment is described as follows: Pre-emergence herbicidal action against ABUTH. Type of experiment: in vivo, Abutilon theophrasti. The settings on record: for Pre-emergence action against ABUTH (herbicidal activity): 80 g/ha, scored visually after 3 weeks vs untreated controls (100% = plants have died, 0% = like control plants). Put shortly: as §2

In experiment [12] the test system is PHBPU. The experiment is described as follows: Post-emergence herbicidal action against PHBPU. Type of experiment: in vivo, Pharbitis purpurea. Put shortly: as §1
Experiment [13] concerns SETVI. The experiment is described as follows: Post-emergence herbicidal action against SETVI. The settings on record: dosage 20 g/ha. Type of experiment: in vivo, Setaria viridis. Put shortly: as §1
In experiment [14] the test system is VIOTR. The experiment is described as follows: Post-emergence herbicidal action against VIOTR. Type of experiment: in vivo, Viola tricolor. Particulars: 20 g/ha. Put shortly:
as §1

Experiment [15] has as its system AVEFA. The experiment is described as follows: Pre-emergence herbicidal action against AVEFA. Type of experiment: in vivo, Avena fatua. Particulars: 80 g/ha, pre-emergence. Put shortly:
as §2

The test system of experiment [16] is VERPE. The experiment is described as follows: Post-emergence herbicidal action against VERPE. Type of experiment: in vivo, Veronica persica. The settings on record: 20 g/ha. Put shortly: as §1
Experiment [17] relates to ALOMY. The experiment is described as follows: Post-emergence herbicidal action against ALOMY. The settings on record: dosage 20 g/ha, visual assessment about 3 weeks after treatment vs untreated controls. Type of experiment: in vivo, Alopecurus myosuroides. Put shortly: as §1
The test system of experiment [18] is ABUTH. The experiment is described as follows: Post-emergence herbicidal action against ABUTH. Type of experiment: in vivo, Abutilon theophrasti. Particulars: visual assessment about 3 weeks after treatment vs untreated controls. Put shortly:
as §1

Experiment [19] relates to DIGSA. The experiment is described as follows: Post-emergence herbicidal action against DIGSA. Type of experiment: in vivo, Digitaria sanguinalis. Particulars: 20 g/ha. Put shortly: as §1
Setting [20] is: 20 g/ha, scored visually after 3 weeks vs untreated controls, 100% = plants have died, 0% = like control plants.
[21] abbreviates: 80 g/ha, scored visually after 3 weeks vs untreated controls (100% = plants have died, 0% = like control plants).

Consider `Cn1nnnc1NC(=O)c1ccc(C(F)(F)F)c(C(=O)NCC2CCCO2)c1Cl` (centres unmarked) [Example 1-141], for which the “Post-emergence action at 20 g/ha against AMARE in %” value in experiment [1] is recorded as 100%. In addition, the “Pre-emergence action against DIGSA in %” value was determined as 90% in [2] (dosage 20 g/ha) and 100% in [2] (dosage 80 g/ha). Besides, the “Pre-emergence action against MATIN in %” value in experiment [3] (dosage 80 g/ha) is reported as 100%. The “Pre-emergence action against AMARE in %” value in experiment [4] (setting [20]) and in experiment [4] (setting [21]) was 100% throughout. Also, the “Pre-emergence action against VIOTR in %” value is recorded as 80% in [5] (dosage 20 g/ha) and 100% in experiment [5] (dosage 80 g/ha). Moreover, the “Pre-emergence action against SETVI in %” value in [6] (dosage 20 g/ha) turned out to be 90%; in [6] (dosage 80 g/ha), 100%. Further, in experiment [7], the “Pre-emergence action against ECHCG in %” value is on record as 90%. For the same compound, the “Pre-emergence action against ALOMY (herbicidal activity)” value (“Pre-emergence action against ALOMY” for short) in experiment [8] was 90%. In [9], the “Pre-emergence action against PHBPU in %” value is reported as 80%.
For the compound `CCn1nnnc1NC(=O)c1ccc(C(F)F)c(C(=O)NCC2CCCO2)c1Cl` (centres unmarked) [Example 2-159], in experiment [1], the “Post-emergence action at 20 g/ha against AMARE in %” value turned out to be 100%. For the same compound, the “Pre-emergence action against MATIN in %” value in experiment [3] (dosage 80 g/ha) was found to be 90%. Further, the “Pre-emergence action against AMARE in %” value in experiment [4] (setting [20]) and in experiment [4] (setting [21]) was 100% in each case. The “Pre-emergence action against VERPE in %” value in experiment [10] (dosage 80 g/ha) worked out at 80%. Further, the “Pre-emergence action against VIOTR in %” value in [5] (dosage 80 g/ha) was 80%. Further, the “Pre-emergence action against ABUTH (herbicidal activity)” value in [11] came to 100%. Further, the results for the “Post-emergence action against PHBPU in %” value in experiment [12] (dosage 5 g/ha) and in [12] (dosage 20 g/ha) were 80% and 90%, respectively. Further, the “Pre-emergence action against ECHCG in %” value in experiment [7] is reported as 90%. Moreover, in [8], the “Pre-emergence action against ALOMY” value is 80%. For the same compound, in experiment [9], the “Pre-emergence action against PHBPU in %” value is 90%.
As for `CCn1nnnc1NC(=O)c1ccc(OC)c(C(=O)NC2CC2)c1Cl` [Example 2-354], the “Post-emergence action at 20 g/ha against AMARE in %” value in [1] is on record as 100%. Also, the “Post-emergence action against SETVI in %” value in experiment [13] is listed as 90%. Further, the “Post-emergence action against VIOTR in %” value in experiment [14] was 100%. The “Pre-emergence action against AVEFA in %” value in experiment [15] was found to be 90%. Besides, the “Post-emergence action against VERPE in %” value in experiment [16] came to 90%. The “Pre-emergence action against MATIN in %” value in experiment [3] (dosage 20 g/ha) and in experiment [3] (dosage 80 g/ha) was 100% in each case. The “Post-emergence action against ALOMY in %” value in experiment [17] is 80%. The “Pre-emergence action against AMARE in %” value in [4] (setting [20]) and in experiment [4] (setting [21]) was 100% in each case. Besides, the “Pre-emergence action against VERPE in %” value in [10] (dosage 20 g/ha) and in [10] (dosage 80 g/ha) was 80% in each case. Moreover, the “Pre-emergence action against VIOTR in %” value in [5] (dosage 20 g/ha) is on record as 80%; in [5] (dosage 80 g/ha) it was 100%. The “Pre-emergence action against ABUTH (herbicidal activity)” value in experiment [11] is listed as 100%. The “Pre-emergence action against ABUTH (herbicidal activity in percent)” value in [11] (dosage 20 g/ha, scored visually after 3 weeks vs untreated controls, 100% = plants have died, 0% = like control plants) was 90%. The “Post-emergence action against PHBPU in %” value in experiment [12] (dosage 20 g/ha) amounted to 80%. The “Post-emergence action against ABUTH in %” value in experiment [18] (dosage 5 g/ha) and in experiment [18] (dosage 20 g/ha) was 90% throughout. Besides, the “Pre-emergence action against ALOMY” value in experiment [8] is reported as 90%.
In the case of `Cc1nnc(NC(=O)c2ccc(C(F)(F)F)c(C(=O)NCC3CC3)c2C2CC2)o1` [Example 6-228], the “Post-emergence action at 20 g/ha against AMARE in %” value in experiment [1] is given as 90%. The “Pre-emergence action against DIGSA in %” value in [2] (dosage 20 g/ha) is listed as 90%; in experiment [2] (dosage 80 g/ha) it was 100%. Further, the “Pre-emergence action against MATIN in %” value in experiment [3] (dosage 80 g/ha) is 80%. In addition, the “Pre-emergence action against AMARE in %” value in experiment [4] (setting [21]) was determined as 100%. In addition, the “Post-emergence action against DIGSA” value in [19] is listed as 80%. Besides, the “Pre-emergence action against ABUTH (herbicidal activity)” value in experiment [11] was found to be 90%. Further, the “Post-emergence action against PHBPU in %” value in experiment [12] (dosage 20 g/ha) is 80%. In [6] (dosage 80 g/ha), the “Pre-emergence action against SETVI in %” value is listed as 80%. For the same compound, the “Pre-emergence action against ECHCG in %” value in experiment [7] worked out at 90%. The “Pre-emergence action against PHBPU in %” value in [9] is recorded as 80%.
